Results as given in publication PMC12586182 (Frontiers in Oncology, 2025).

Legend:
EPHA4 = biological target: T1, EPHA4 (Homo sapiens, UniProt P54764); experiment: Kinase panel profiling at 1 µmol/L (mobility shift assay, Carna); assay type: biochemical; details: 1 µmol/L of BTK inhibitor
T1 construct: purchased Carna Biosciences

EPHB1 = biological target: T2, EPHB1 (Homo sapiens, UniProt P54762); experiment: as above; assay type: biochemical; details: 1 µmol/L of BTK inhibitor
T2 construct: purchased Carna Biosciences
T2 sequence (P54762 18-984): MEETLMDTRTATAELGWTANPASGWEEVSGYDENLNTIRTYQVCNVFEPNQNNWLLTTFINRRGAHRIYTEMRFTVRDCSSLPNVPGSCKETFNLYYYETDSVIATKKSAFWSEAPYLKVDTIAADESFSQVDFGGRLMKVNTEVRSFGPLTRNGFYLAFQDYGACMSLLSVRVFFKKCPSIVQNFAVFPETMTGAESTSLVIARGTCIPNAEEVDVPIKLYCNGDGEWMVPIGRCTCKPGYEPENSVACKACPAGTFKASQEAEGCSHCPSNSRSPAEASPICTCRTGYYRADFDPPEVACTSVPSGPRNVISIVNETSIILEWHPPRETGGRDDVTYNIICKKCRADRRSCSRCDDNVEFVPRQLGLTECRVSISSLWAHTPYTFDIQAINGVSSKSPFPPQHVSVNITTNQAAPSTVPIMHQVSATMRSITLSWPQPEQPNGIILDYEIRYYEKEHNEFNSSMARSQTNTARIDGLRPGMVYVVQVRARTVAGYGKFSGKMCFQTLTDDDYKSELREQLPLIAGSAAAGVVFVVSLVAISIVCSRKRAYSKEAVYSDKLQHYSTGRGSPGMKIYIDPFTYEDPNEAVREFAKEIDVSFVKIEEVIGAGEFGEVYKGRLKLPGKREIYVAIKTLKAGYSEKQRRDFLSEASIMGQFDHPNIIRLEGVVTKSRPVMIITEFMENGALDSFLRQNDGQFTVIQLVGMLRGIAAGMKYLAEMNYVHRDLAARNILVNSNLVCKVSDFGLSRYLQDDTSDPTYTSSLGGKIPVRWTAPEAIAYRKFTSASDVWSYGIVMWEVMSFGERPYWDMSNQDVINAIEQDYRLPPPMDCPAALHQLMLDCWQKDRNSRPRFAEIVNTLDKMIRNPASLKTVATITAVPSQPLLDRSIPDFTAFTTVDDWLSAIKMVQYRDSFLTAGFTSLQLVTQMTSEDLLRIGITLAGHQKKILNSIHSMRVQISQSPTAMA

FER = biological target: T3, FER (Homo sapiens, UniProt P16591); experiment: as above; assay type: biochemical; details: 1 µmol/L of BTK inhibitor
T3 construct: purchased Carna Biosciences
T3 sequence (P16591 whole entry): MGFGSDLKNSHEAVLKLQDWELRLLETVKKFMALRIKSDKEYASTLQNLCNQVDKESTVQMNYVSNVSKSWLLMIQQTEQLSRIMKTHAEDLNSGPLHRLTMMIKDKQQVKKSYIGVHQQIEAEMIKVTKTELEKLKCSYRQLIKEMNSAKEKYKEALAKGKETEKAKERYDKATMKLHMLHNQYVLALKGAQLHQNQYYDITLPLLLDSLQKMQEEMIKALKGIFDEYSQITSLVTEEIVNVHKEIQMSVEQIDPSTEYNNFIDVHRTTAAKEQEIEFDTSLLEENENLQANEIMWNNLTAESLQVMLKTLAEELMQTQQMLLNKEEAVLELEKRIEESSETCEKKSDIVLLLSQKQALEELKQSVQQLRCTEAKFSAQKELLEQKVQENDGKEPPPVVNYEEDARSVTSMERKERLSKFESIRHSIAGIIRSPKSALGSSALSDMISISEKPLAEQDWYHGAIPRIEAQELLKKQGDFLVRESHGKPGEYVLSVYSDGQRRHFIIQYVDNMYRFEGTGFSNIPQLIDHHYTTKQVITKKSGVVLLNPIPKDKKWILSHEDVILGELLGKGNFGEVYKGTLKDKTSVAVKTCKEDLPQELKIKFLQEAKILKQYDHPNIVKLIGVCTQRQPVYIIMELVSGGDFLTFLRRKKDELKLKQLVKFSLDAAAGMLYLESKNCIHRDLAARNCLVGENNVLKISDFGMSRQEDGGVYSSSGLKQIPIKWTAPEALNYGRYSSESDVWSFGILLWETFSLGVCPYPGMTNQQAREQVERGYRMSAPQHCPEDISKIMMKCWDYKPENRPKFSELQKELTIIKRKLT

INSR = biological target: T4, INSR (Homo sapiens, UniProt P06213); experiment: as above; assay type: biochemical; details: 1 µmol/L of BTK inhibitor
T4 construct: purchased Carna Biosciences

RON = biological target: T5, RON (Homo sapiens, UniProt Q04912); experiment: as above; assay type: biochemical; details: 1 µmol/L of BTK inhibitor
T5 construct: purchased Carna Biosciences

DYRK2 = biological target: T6, DYRK2 (Homo sapiens, UniProt Q92630); experiment: as above; assay type: biochemical; details: 1 µmol/L of BTK inhibitor
T6 construct: purchased Carna Biosciences
T6 sequence (Q92630 1-601): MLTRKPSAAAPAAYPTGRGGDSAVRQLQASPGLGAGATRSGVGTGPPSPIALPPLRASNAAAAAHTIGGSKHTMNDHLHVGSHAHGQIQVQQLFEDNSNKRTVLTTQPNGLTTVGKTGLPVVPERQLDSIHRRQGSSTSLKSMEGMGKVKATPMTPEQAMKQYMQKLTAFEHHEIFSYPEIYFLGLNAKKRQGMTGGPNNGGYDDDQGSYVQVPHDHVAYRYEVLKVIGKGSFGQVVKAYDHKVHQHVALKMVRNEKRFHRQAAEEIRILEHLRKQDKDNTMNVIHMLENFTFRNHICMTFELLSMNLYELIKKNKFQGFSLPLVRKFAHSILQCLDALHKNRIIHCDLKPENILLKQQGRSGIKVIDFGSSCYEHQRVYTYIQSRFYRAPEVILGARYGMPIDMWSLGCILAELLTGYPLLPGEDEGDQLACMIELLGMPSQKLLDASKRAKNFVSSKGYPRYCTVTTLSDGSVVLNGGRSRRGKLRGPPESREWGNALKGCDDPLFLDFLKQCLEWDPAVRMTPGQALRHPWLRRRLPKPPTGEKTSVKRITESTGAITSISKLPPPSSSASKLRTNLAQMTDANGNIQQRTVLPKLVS

p38γ = biological target: T7, p38γ (Homo sapiens, UniProt P53778); experiment: as above; assay type: biochemical; details: 1 µmol/L of BTK inhibitor
T7 construct: purchased Carna Biosciences
T7 sequence (P53778 1-367): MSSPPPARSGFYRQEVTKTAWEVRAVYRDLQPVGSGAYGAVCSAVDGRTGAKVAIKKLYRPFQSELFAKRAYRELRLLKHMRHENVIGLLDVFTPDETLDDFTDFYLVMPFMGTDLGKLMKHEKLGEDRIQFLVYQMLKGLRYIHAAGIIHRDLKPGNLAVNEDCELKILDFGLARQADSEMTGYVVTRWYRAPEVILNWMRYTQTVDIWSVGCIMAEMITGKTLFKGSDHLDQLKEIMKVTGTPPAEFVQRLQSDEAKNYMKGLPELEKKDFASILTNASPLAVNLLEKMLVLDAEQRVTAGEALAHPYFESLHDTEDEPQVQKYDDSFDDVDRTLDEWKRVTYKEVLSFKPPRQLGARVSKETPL

p70S6Kβ = biological target: T8, p70S6Kβ (Homo sapiens, UniProt Q9UBS0); experiment: as above; assay type: biochemical; details: 1 µmol/L of BTK inhibitor
T8 construct: purchased Carna Biosciences
T8 sequence (Q9UBS0 whole entry): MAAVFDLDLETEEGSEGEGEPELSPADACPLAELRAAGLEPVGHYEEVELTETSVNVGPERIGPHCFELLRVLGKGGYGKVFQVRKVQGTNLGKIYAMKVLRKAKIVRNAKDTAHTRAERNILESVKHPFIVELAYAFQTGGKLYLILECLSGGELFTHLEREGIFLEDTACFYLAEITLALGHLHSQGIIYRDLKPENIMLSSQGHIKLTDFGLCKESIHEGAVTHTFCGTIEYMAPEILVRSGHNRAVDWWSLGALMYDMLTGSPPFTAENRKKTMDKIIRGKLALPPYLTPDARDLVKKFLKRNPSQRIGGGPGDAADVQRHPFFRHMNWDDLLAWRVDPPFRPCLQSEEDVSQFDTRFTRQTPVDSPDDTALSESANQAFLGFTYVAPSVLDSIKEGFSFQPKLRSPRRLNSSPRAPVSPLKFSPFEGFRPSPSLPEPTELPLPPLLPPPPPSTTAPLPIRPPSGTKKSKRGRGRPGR

PKCδ = biological target: T9, PKCδ (Homo sapiens, UniProt Q05655); experiment: as above; assay type: biochemical; details: 1 µmol/L of BTK inhibitor
T9 construct: purchased Carna Biosciences
T9 sequence (Q05655 whole entry): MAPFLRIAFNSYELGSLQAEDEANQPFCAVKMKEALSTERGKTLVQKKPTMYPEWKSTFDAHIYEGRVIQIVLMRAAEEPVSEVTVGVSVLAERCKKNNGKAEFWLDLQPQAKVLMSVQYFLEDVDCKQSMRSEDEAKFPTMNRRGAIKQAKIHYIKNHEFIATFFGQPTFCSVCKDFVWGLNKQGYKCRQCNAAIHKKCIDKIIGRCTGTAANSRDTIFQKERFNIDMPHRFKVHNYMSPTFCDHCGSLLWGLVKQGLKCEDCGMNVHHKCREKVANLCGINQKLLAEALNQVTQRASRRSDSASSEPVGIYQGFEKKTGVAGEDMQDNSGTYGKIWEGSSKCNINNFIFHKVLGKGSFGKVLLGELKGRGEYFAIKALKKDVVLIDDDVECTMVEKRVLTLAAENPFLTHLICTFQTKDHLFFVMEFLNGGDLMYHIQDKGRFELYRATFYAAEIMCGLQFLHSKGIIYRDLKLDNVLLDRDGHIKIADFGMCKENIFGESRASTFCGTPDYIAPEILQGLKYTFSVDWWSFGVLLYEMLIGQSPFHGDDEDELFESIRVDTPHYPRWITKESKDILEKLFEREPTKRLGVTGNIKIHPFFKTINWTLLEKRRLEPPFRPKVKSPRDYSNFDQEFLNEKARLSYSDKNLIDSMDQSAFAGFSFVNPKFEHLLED

SIK = biological target: T10, SIK (Homo sapiens, UniProt P57059); experiment: as above; assay type: biochemical; details: 1 µmol/L of BTK inhibitor
T10 construct: purchased Carna Biosciences
T10 sequence (P57059 whole entry): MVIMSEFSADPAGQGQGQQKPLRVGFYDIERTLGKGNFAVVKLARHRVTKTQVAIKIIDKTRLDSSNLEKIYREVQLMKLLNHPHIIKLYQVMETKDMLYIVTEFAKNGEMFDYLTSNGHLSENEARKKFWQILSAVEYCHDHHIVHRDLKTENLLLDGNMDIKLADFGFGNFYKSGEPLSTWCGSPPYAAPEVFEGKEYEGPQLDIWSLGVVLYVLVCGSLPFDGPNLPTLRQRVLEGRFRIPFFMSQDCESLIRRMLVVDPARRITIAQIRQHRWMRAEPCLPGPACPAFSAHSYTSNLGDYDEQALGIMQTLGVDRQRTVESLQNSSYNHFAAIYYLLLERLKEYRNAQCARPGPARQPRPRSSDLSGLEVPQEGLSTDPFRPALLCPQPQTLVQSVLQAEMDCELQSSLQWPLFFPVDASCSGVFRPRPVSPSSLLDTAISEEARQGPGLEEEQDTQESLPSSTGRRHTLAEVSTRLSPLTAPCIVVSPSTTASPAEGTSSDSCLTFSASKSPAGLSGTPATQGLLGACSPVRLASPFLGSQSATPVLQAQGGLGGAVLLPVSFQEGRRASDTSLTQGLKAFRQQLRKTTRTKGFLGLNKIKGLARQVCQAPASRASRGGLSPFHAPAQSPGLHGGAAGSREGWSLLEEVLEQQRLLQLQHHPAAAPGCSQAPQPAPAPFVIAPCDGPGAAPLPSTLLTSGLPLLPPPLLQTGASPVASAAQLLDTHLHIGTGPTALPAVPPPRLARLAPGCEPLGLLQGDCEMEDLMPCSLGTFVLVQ

ERK1 = ERK1 (Homo sapiens, UniProt P27361); experiment: Kinase enzyme activity assay (mobility shift assay, Carna); details: for Percentage inhibition of kinase enzyme activity: Erk1, 1 µmol/L of BTK inhibitor
Sequence of ERK1 (P27361 whole entry): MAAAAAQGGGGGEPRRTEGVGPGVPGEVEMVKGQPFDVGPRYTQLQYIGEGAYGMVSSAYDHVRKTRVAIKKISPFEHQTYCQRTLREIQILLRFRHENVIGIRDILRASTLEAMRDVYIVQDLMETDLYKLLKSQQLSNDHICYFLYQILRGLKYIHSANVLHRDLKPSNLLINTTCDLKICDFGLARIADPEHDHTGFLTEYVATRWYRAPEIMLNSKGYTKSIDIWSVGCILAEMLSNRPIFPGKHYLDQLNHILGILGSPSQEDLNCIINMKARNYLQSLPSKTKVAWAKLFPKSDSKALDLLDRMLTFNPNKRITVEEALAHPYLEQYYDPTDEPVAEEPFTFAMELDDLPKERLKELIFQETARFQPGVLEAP

T1 sequence (P54764 20-986): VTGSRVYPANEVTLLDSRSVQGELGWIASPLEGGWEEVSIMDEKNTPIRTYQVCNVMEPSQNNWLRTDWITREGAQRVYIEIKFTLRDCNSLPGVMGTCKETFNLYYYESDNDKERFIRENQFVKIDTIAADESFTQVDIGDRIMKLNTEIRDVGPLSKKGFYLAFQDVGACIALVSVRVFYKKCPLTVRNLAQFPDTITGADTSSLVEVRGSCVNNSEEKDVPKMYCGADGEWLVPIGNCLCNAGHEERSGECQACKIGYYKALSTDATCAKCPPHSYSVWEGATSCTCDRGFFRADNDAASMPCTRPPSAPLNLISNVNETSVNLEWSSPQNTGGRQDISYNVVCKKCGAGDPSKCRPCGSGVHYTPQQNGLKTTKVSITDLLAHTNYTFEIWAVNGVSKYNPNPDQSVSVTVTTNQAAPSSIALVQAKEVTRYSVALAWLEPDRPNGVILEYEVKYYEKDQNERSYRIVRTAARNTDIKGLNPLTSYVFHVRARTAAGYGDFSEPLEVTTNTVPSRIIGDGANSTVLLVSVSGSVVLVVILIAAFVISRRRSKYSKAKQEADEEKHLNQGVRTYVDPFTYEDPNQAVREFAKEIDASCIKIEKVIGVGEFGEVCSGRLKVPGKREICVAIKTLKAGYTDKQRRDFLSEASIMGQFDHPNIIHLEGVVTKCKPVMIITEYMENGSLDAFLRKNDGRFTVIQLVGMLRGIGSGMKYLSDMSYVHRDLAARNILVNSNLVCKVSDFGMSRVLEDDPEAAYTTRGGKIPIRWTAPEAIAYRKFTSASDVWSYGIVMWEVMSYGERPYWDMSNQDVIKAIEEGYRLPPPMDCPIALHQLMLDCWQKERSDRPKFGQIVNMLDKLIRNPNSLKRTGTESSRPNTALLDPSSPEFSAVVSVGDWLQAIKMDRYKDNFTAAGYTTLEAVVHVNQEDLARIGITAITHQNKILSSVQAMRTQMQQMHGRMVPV

CC#CC(=O)N1CCC[C@H]1c1nc(-c2ccc(C(=O)Nc3ccccn3)cc2)c2c(N)nccn12 [acalabrutinib]
Percentage inhibition of kinase enzyme activity (EPHA4): -3.03% | Percentage inhibition of kinase enzyme activity (EPHB1): -1.40% | Percentage inhibition of kinase enzyme activity (FER): -2.54% | Percentage inhibition of kinase enzyme activity (INSR): -4.67% | Percentage inhibition of kinase enzyme activity (RON): 7.68% | Percentage inhibition of kinase enzyme activity (DYRK2): -16.01% | Percentage inhibition of kinase enzyme activity (p38γ): -1.74% | Percentage inhibition of kinase enzyme activity (p70S6Kβ): -14.17% | Percentage inhibition of kinase enzyme activity (PKCδ): -8.64% | Percentage inhibition of kinase enzyme activity (SIK): 0.26% | Percentage inhibition of kinase enzyme activity (ERK1): -2.38%

C=CC(=O)N1CCC[C@@H](n2nc(-c3ccc(Oc4ccccc4)cc3)c3c(N)ncnc32)C1 [ibrutinib]
Percentage inhibition of kinase enzyme activity (EPHA4): 12.63% | Percentage inhibition of kinase enzyme activity (EPHB1): 11.81% | Percentage inhibition of kinase enzyme activity (INSR): 9.51% | Percentage inhibition of kinase enzyme activity (RON): 6.98% | Percentage inhibition of kinase enzyme activity (DYRK2): -1.83% | Percentage inhibition of kinase enzyme activity (p38γ): 3.51% | Percentage inhibition of kinase enzyme activity (p70S6Kβ): 0.87% | Percentage inhibition of kinase enzyme activity (PKCδ): 0.52% | Percentage inhibition of kinase enzyme activity (SIK): 8.13% | Percentage inhibition of kinase enzyme activity (ERK1): 1.74%

O=C(c1ccc(Oc2ccccc2)cc1Cl)c1c[nH]c2ncnc(N[C@@H]3CC[C@@H](CO)OC3)c12 [nemtabrutinib]
Percentage inhibition of kinase enzyme activity (EPHA4): 82.34% | Percentage inhibition of kinase enzyme activity (EPHB1): 63.64% | Percentage inhibition of kinase enzyme activity (FER): 96.49% | Percentage inhibition of kinase enzyme activity (INSR): 95.91% | Percentage inhibition of kinase enzyme activity (RON): 33.63% | Percentage inhibition of kinase enzyme activity (DYRK2): -2.66% | Percentage inhibition of kinase enzyme activity (p38γ): 0.72% | Percentage inhibition of kinase enzyme activity (p70S6Kβ): 4.30% | Percentage inhibition of kinase enzyme activity (PKCδ): 6.96% | Percentage inhibition of kinase enzyme activity (SIK): 96.56% | IC50 (ERK1): 543 nM | Inhibition of ERK1 (ERK1): did not inhibit | Percentage inhibition of kinase enzyme activity (ERK1): 61.74%

COc1ccc(F)cc1C(=O)NCc1ccc(-c2nn([C@@H](C)C(F)(F)F)c(N)c2C(N)=O)cc1 [pirtobrutinib]
Percentage inhibition of kinase enzyme activity (EPHA4): 9.50% | Percentage inhibition of kinase enzyme activity (EPHB1): 2.51% | Percentage inhibition of kinase enzyme activity (FER): 7.19% | Percentage inhibition of kinase enzyme activity (INSR): 6.62% | Percentage inhibition of kinase enzyme activity (RON): 6.55% | Percentage inhibition of kinase enzyme activity (DYRK2): -4.14% | Percentage inhibition of kinase enzyme activity (p38γ): -2.05% | Percentage inhibition of kinase enzyme activity (p70S6Kβ): 10.01% | Percentage inhibition of kinase enzyme activity (PKCδ): -3.98% | Percentage inhibition of kinase enzyme activity (SIK): -2.28% | Percentage inhibition of kinase enzyme activity (ERK1): -1.16%

C=CC(=O)N1CCC([C@@H]2CCNc3c(C(N)=O)c(-c4ccc(Oc5ccccc5)cc4)nn32)CC1 [zanubrutinib]
Percentage inhibition of kinase enzyme activity (EPHA4): 0.04% | Percentage inhibition of kinase enzyme activity (EPHB1): -1.07% | Percentage inhibition of kinase enzyme activity (FER): 1.42% | Percentage inhibition of kinase enzyme activity (INSR): 2.69%
